The values that follow come from US20190269705A1, “METHODS AND MATERIALS FOR TREATING GRAFT VERSUS HOST DISEASE” (Regents of the University of Minnesota, priority 2017, published 2019).

Molecules are shown by their SMILES. Entries after “also recorded” stand apart in the source; their conditions may differ.

Holding throughout (format): cell-based, mouse
For assay [1], the system named is Th17 cells. The experiment in a line: Intracellular metabolites by mass spectrometry and pathway analysis, Th17. The note with it: for Hits: Th17 Pathway. Here is the method: Glucose uptake assays were performed as described elsewhere (see, e.g., Macintyre et al., 2014 Cell Metab. 20(1):61-72). Naïve CD4+ T cells were differentiated into Th1 and Th17 cells, in triplicate, in the presence or absence of CB839 over 5 days and spun down after reisolation using CD4 kit as previously described. Cells were washed 2× in PBS, counted, then rested in 1 mL Kreb's Ringers HEPES (KRH) for 10 minutes. Cells were spun and resuspended to 5×10^5 cells/50 uL KRH for glucose uptake assay. Briefly, cells were […]. Cells incubated for 10 minutes at 37° C. Immediately after incubation, reaction was quenched with 200 μM phloretin (Calbiochem, Cat #: 524488). Cells were spun, washed, and then resuspended in scint fluid for counting on Beckman-Coulter scintillation counter. Pathway analysis of altered metabolites was performed using Metaboanalyst 3.0 (metaboanalyst. ca/faces/home.xhtml).
Differentiation: CD4 cells were isolated as previously described and differentiated in subset-specific medium (in triplicate) for 3 days, split at day 3 with new media and IL-2, then allowed to incubate a further 2 days. At day 5, wells were combined, cells washed lx in MACS buffer, re-isolated for CD4 via AutoMACS Pro automated magnetic separator (Miltenyi, Cat #: 130-092-545). Metabolites from Th1 and Th17 cells were extracted as described above.
Differentiation. CD4 cells were isolated as previously described and differentiated in subset-specific medium in the presence of vehicle or CB839 (in triplicate) for 3 days, split at day 3 with new media and IL-2, then allowed to incubate a further 2 days. At day 5, wells were combined, cells washed 1× in MACS buffer and re-isolated for CD4 via AutoMACS Pro automated magnetic separator (Miltenyi, Cat #: 130-092-545). Metabolites from Th1 and Th17 cells were extracted and analyzed by LC-HRMS using a Q-Exactive as described previously (Gerriets et al., 2015). Data were range scaled and analyzed using Metaboanalyst 3.5 (Xia and Wishart, 2002) to generate heat maps and for principle component analyses.

The test system of assay [2] is Th17 cells. The assay can be described thus: ATAC-Seq chromatin accessibility, Th17. Particulars: Th17, 500 nM CB839, day 5. As for the experimental part:
ATAC-Seq: Crude nuclei pellets were isolated as described elsewhere (see, e.g., Buenrostro et al., 2013 Nat Meth. 10(12):1213-1218) with modifications. Briefly, naïve CD4 T cells were skewed to Th1 and Th17 subsets in vitro with vehicle or in the presence of 500 nM CB839. At Day 5, T cells were re-isolated for CD4+ cells using Miltenyi CD4+ negative selection kit (Cat #: 130-104-454). 1×10^5 cells were removed for nuclei extraction in ATAC-Seq lysing buffer. Cells were exposed to Tn5+ adaptor proteins from Nextera DNA for 30 min at 37° C. and immediately placed on ice. Transposed eluate was amplified via PCR using Nextera DNA preparation kit (Illumina, Cat #: FC-121-1030), NEBNext High-fidelity 2× PCR mix (New England Labs, Cat #: M0541), and multiplexed (Illumina, Cat #: FC-121-1011). Samples were purified using Zymo DNA cleanup kit (Cat #: D4011). QC of samples was run on bioanalyzer before being sent for sequencing. RNA-Seq: Th1 and Th17 cells skewed with or without CB839 were isolated as previously described and total RNA extracted (Qiagen RNEasy Mini kit, Cat #: 74104). RNA was sent to VANTAGE core at Vanderbilt University and sequenced on HiSeq 2500. n=3 for each sample was analyzed. Samples were analyzed using the R program DESeq2. GSEA was performed using MSigDB. […]

The test system of a further assay is stimulated CD4+ T cells. The assay can be described thus: 13C-glucose tracing of stimulated CD4 T cells (LC-HRMS). Particulars: 1 μM CB839, 13C-glucose, 24 hours. As for the experimental part: ^13C-Glucose Activation: CD4 cells were activated on 5 μg/mL αCD3/CD28 for 3 days. At day 3, cells were pooled, washed 3× in PBS, and re-stimulated in presence of 1 μM CB839 or Vehicle (DMSO) and 11 mM ^13C glucose (Cambridge Isotope Labs, Cat #: CLM-1396-1). Cells were incubated for 24 hours at 37° C., then scraped and combined in triplicate. Cells were rinsed with 0.9% saline and metabolites were extracted in methanol. Metabolites measured by LC-High-Resolution Mass Spectrometer (LC-HRMS) using a Q-exactive machine. The time-dependent glucose labeling pattern was modeled as with the following equation: […]
^13C Tracing. To measure 13C-Glucose tracing in T cell activation, CD4 cells were stimulated on 5 μg/mL anti-CD3/CD28 for 3 days. At day 3, cells were pooled, washed 3× in PBS, and re-stimulated in presence of 1 uM CB839 or Vehicle (DMSO) and 11 mM 13C glucose (Cambridge Isotope Labs, Cat #: CLM-1396-1). Cells were incubated for 24 hours at 37 °C, then scraped and combined in triplicate. Cells were rinsed with 0.9% saline and metabolites were extracted in methanol. Metabolites measured by LC High-Resolution Mass Spectrometer (LC-HRMS) using a Q-Exactive machine as previously described(Liberti et al., 2017). The time-dependent glucose labeling pattern was modeled as with the following equation: […]

Consider `O=C(Cc1cccc(OC(F)(F)F)c1)Nc1ccc(CCCCc2nnc(NC(=O)Cc3ccccn3)s2)nn1` [CB839], for which, in the assay on Th17 cells [1] (Th17, CB839-treated vs vehicle), the “2-hydroxyglutarate (2-HG)” value was “increased in both Th1 and Th17”; the “intracellular α-KG” value is “reduced in CB839-treated Th1, but not Th17 cells”. Also, the “programs of intracellular metabolites” value in the assay with Th17 cells [1] (Th17, differentiated with CB839, 5 days) was “more pronounced in Th17 than in Th1 cells; also recorded: shifted”. Also, in the assay on Th17 cells [1] (Th17, over five days), the “glutamate and aspartate levels” value is “rapidly decreased”; the “steady state levels of glutamine” value was “rapidly increased”. Besides, the Hits with Th17 cells [1] (Alanine, aspartate and glutamate metabolism) is given as 5. The Hits in the assay on Th17 cells [1] (Pentose phosphate pathway) came out at 5. The Hits in the assay with Th17 cells [1] (Phenylalanine, tyrosine and tryptophan biosynthesis) worked out at 2. The Hits with Th17 cells [1] (Purine metabolism) was determined as 8. Moreover, the “genes with regions of altered chromatin accessibility” value with Th17 cells [2] is “more genes with regions of reduced accessibility”. For the same molecule, in the assay on stimulated CD4+ T cells, the N-carbamoyl-aspartate entry is listed as “decreased”, the “TCA intermediates fractional labeling with glucose-derived 13C” value was “increased fractional labeling”, the “TCA intermediates overall abundance” value is on record as “reduced in overall abundance” and the aspartate levels entry is on record as “decreased significantly”. Besides, in the assay on stimulated CD4+ T cells, the “glucose-derived 13C in glutamate and aspartate” value is “increased in both glutamate and aspartate”; the glutamate entry is recorded as “decreased glutamate”; the glycine abundance result was “unchanged”; the glycolytic intermediates abundance result is “more abundant”. Also, in the assay with stimulated CD4+ T cells, the intracellular glutamine result is on record as “increased intracellular glutamine”; the “lactate levels and 13C-labeling” value was “unchanged”; the pyruvate abundance result is reported as “decreased”; the “serine and alanine abundance” value is given as “also decreased”.
